row,melting point,SMILES
1,231 to 233 °C,Cl.FC(F)(F)Oc1ccccc1CN[C@H]1CCCN[C@H]1c1ccccc1
2,> 275 °C (dec.),CCOc1ccc(OC(F)(F)F)cc1CN[C@H]1CCCN[C@H]1c1ccccc1.Cl
3,238 to 239 °C,Cl.FC(F)Oc1ccc(OC(F)F)c(CN[C@H]2CCCN[C@H]2c2ccccc2)c1
4,> 270 °C,CC(=O)Nc1ccc(OCC(F)(F)F)c(CN[C@H]2CCCN[C@H]2c2ccccc2)c1.Cl
5,262 to 264 °C,CC(C)(C)c1ccc(OC(F)(F)F)c(CN[C@H]2CCCN[C@H]2c2ccccc2)c1.Cl
6,245 to 247 °C (dec.),CC(C)c1ccc(OC(F)F)c(CN[C@H]2CCCN[C@H]2c2ccccc2)c1.Cl
7,263 to 264 °C (dec.),CC(C)(C)c1ccc(OC(F)F)c(CN[C@H]2CCCN[C@H]2c2ccccc2)c1.Cl
8,245 to 246 °C (dec.),CC(C)Oc1ccc(OC(F)(F)F)cc1CN[C@H]1CCCN[C@H]1c1ccccc1.Cl
9,> 275 °C,Cc1ccc(OC(F)F)c(CN[C@H]2CCCN[C@H]2c2ccccc2)c1.Cl
10,> 280 °C,CC(C)c1ccc(OCC(F)(F)F)c(CN[C@H]2CCCN[C@H]2c2ccccc2)c1.Cl

# Source: patent publication US20030199540A1, “Fluoroalkyoxybenzylamino derivatives of nitrogen containing heterocycles” (priority 1991, published 2003)
